Eight compounds from ChEMBL document CHEMBL3272053, “(exo, exo)-2-Aryltropane-3-carboxylic esters, hypoglycemic agents with accompanying analgesic activity” (J Med Chem, 1978) can be followed below.

Series [1] deals with Rattus norvegicus. The experiment in a line: Narcotic analgesic activity in fasted Sprague-Dawley rat at 240 mg/kg, po measured at 15 mins by D'Amour-Smith tail-flick test relative to control. It counts as functional.
The test system of series [2] is Mus musculus. The experiment in a line: Analgesic activity in Swiss-Webster mouse assessed as reduction of acetylcholine-induced writhing at 25 mg/kg, sc relative to control. It counts as functional. Particulars: route subcutaneous. Also noted: scale not given: the % may be the effect or the level left. For orientation: Writhing tests count abdominal constrictions after an irritant is injected.

Series [3] deals with Rattus norvegicus. The experiment in a line: Toxicity in Sprague-Dawley rat assessed as convulsion at 240 mg/kg, po. It counts as organism-based. Also noted: dose 240 mg/kg, route oral. Particulars: in vivo.
The subject of series [4] is Rattus norvegicus. The experiment in a line: Hypoglycemic activity in fasted Sprague-Dawley rat assessed as reduction of blood glucose level at 89 mg/kg, po relative to control. Also noted: scale not given: the % may be the effect or the level left. It counts as functional.
Series [5] concerns Rattus norvegicus. The experiment in a line: Narcotic analgesic activity in fed Sprague-Dawley rat at 240 mg/kg, sc measured at 30 mins by D'Amour-Smith tail-flick test. It counts as functional. Particulars: route subcutaneous. A general note: Hot-plate and tail-flick tests time the reaction to a heat stimulus.
Series [6] concerns Rattus norvegicus. Put plainly: Narcotic analgesic activity in fasted Sprague-Dawley rat at 120 mg/kg, po measured at 60 mins by D'Amour-Smith tail-flick test relative to control. The format is functional.
Series [7] concerns Rattus norvegicus. The experiment in a line: Hypoglycemic activity in Sprague-Dawley rat assessed as reduction of blood glucose level at 88 mg/kg, po by glucagon-impaired glucose disposal test in presence of microsomal enzyme inhibitor SKF 525-A. It counts as functional, organism-based. On the set-up: dose 88 mg/kg.
Series [8] concerns Rattus norvegicus. The experiment in a line: Hypoglycemic activity in Sprague-Dawley rat assessed as reduction of blood glucose level at 100 mg/kg, po. The format is functional, organism-based. Also noted: dose 100 mg/kg.
Series [9] relates to Rattus norvegicus. The experiment in a line: Narcotic analgesic activity in fasted Sprague-Dawley rat at 120 mg/kg,sc measured at 30 mins by D'Amour-Smith tail-flick test in presence of opioid antagonist nalorphine. The format is functional, organism-based. Also noted: dose 120 mg/kg.
Series [10] concerns Rattus norvegicus. The experiment in a line: Hypoglycemic activity in Sprague-Dawley rat assessed as reduction of blood glucose level at 88 mg/kg, po by glucagon-impaired glucose disposal test in presence of opioid antagonist nalorphine. The format is functional, organism-based. Also noted: dose 88 mg/kg.
Series [11] is filed under the species Rattus norvegicus. The experiment in a line: Narcotic analgesic activity in Sprague-Dawley rat at 15 mins by D'Amour-Smith tail-flick test in presence of microsomal enzyme inhibitor SKF 525-A. It counts as functional, organism-based.
Series [12] deals with Rattus norvegicus. Put plainly: Toxicity in Sprague-Dawley rat assessed as rigidity at 240 mg/kg, sc. Also noted: dose 240 mg/kg, route subcutaneous. It counts as organism-based. Particulars: in vivo.
The test system of series [13] is Rattus norvegicus. Put plainly: Toxicity in Sprague-Dawley rat assessed as tremor at 240 mg/kg, sc. It counts as organism-based. The conditions noted are these: in vivo. Also noted: dose 240 mg/kg, route subcutaneous.
In series [14] the test system is Rattus norvegicus. Put plainly: Hypoglycemic activity in Sprague-Dawley rat assessed as reduction of blood glucose level at 88 mg/kg, po by glucagon-impaired glucose disposal test relative to control. The format is functional. Also noted: scale not given: the % may be the effect or the level left.
Series [15] deals with Rattus norvegicus. The experiment in a line: Narcotic analgesic activity in po dosed fasted Sprague-Dawley rat measured at 60 mins by D'Amour-Smith tail-flick test. It counts as functional.
Series [16] deals with Rattus norvegicus. Put plainly: Narcotic analgesic activity in sc dosed fed Sprague-Dawley rat measured at 30 mins by D'Amour-Smith tail-flick test. The format is functional. Particulars: Rattus norvegicus, Sprague-Dawley, Tail, sc, 0.5 h; read-out: ED50.
The subject of series [17] is Rattus norvegicus. The experiment in a line: Toxicity in Sprague-Dawley rat assessed as rigidity at >=120 mg/kg, po. The format is organism-based. The conditions noted are these: in vivo.
The subject of series [18] is Rattus norvegicus. Put plainly: Analgesic activity in po dosed rat assessed as reduction of intraarterial bradykinin-induced pain response. It counts as functional.
Series [19] concerns Rattus norvegicus. The experiment in a line: Toxicity in Sprague-Dawley rat assessed as tremor at >= 120 mg/kg, po. It counts as organism-based. Also noted: dose 120 mg/kg, route oral. Particulars: in vivo.
Series [20] has as its system Rattus norvegicus. The experiment in a line: Toxicity in Sprague-Dawley rat assessed as hyperexcitability at >= 120 mg/kg, po. The conditions noted are these: in vivo. Also noted: dose 120 mg/kg, route oral. It counts as organism-based.
Series [21] relates to Rattus norvegicus. Put plainly: Toxicity in Sprague-Dawley rat assessed as mortality at >= 120 mg/kg, po. The format is organism-based. Also noted: dose 120 mg/kg, route oral. Particulars: in vivo.
For series [22], the system named is Rattus norvegicus. Put plainly: Potency index, ratio of codeine ED50 to compound ED50 for analgesic activity in po dosed rat assessed as reduction of intraarterial bradykinin-induced pain response. It counts as functional.
The test system of series [23] is Rattus norvegicus. Put plainly: Hypoglycemic activity in fasted Sprague-Dawley rat assessed as reduction of blood glucose level at 78 mg/kg, po relative to control. The format is functional. On the set-up: scale not given: the % may be the effect or the level left.
In series [24] the test system is Rattus norvegicus. The experiment in a line: Hypoglycemic activity in fasted Sprague-Dawley rat assessed as reduction of blood glucose level at 78 mg/kg, iv relative to control. It counts as functional, organism-based. On the set-up: dose 78 mg/kg.
Series [25] relates to Rattus norvegicus. Put plainly: Hypoglycemic activity in Sprague-Dawley rat assessed as reduction of blood glucose level at 100 mg/kg, po by glucagon-impaired glucose disposal test relative to control. It counts as functional. On the set-up: scale not given: the % may be the effect or the level left.
For series [26], the system named is Rattus norvegicus. The experiment in a line: Narcotic analgesic activity in fasted Sprague-Dawley rat at 480 mg/kg, po measured at 60 mins by D'Amour-Smith tail-flick test relative to control. The format is functional.
Series [27] relates to Mus musculus. The experiment in a line: Analgesic activity in po dosed Swiss-Webster mouse assessed as reduction of acetylcholine-induced writhing. It counts as functional.
The test system of series [28] is Rattus norvegicus. The experiment in a line: Toxicity in Sprague-Dawley rat assessed as tremor at 480 mg/kg, po. The format is organism-based. On the set-up: dose 480 mg/kg, route oral. Particulars: in vivo.
For series [29], the system named is Rattus norvegicus. The experiment in a line: Toxicity in Sprague-Dawley rat assessed as hyperexcitability at 480 mg/kg, po. The conditions noted are these: in vivo. It counts as organism-based. Also noted: dose 480 mg/kg, route oral.
The subject of series [30] is Mus musculus. The experiment in a line: Analgesic activity in sc dosed Swiss-Webster mouse assessed as reduction of acetylcholine-induced writhing. It counts as functional. Particulars: Mus musculus, Swiss-Webster, sc; read-out: ED50.
The subject of series [31] is Mus musculus. The experiment in a line: Toxicity in Swiss-Webster mouse assessed as stimulation of straub tail at 2.5 mg/kg, sc after 15 to 25 mins. The format is organism-based. On the set-up: dose 2.5 mg/kg, route subcutaneous. Particulars: in vivo.
Series [32] has as its system Rattus norvegicus. The experiment in a line: Narcotic analgesic activity in fasted Sprague-Dawley rat at 120 mg/kg, po measured at 15 mins by D'Amour-Smith tail-flick test relative to control. The format is functional.
The subject of series [33] is Rattus norvegicus. Put plainly: Hypoglycemic activity in glucose loaded Sprague-Dawley rat assessed as reduction of blood glucose level at 88 mg/kg, po relative to control. The format is functional. Also noted: scale not given: the % may be the effect or the level left.
The subject of series [34] is Rattus norvegicus. The experiment in a line: Narcotic analgesic activity in fasted Sprague-Dawley rat at 240 mg/kg, po measured at 60 mins by D'Amour-Smith tail-flick test relative to control. The format is functional.
Series [35] concerns Mus musculus. Put plainly: Analgesic activity in Swiss-Webster mouse assessed as reduction of acetylcholine-induced writhing at 75 mg/kg, sc relative to control. It counts as functional. On the set-up: scale not given: the % may be the effect or the level left. The conditions noted are these: route subcutaneous.
The test system of series [36] is Rattus norvegicus. Put plainly: Toxicity in rat assessed as slight rigidity at 480 mg/kg, po. It counts as organism-based. Also noted: dose 480 mg/kg, route oral. The conditions noted are these: in vivo.
Series [37] has as its system Rattus norvegicus. The experiment in a line: Toxicity in Sprague-Dawley rat assessed as stiff tail at 480 mg/kg, po. It counts as organism-based. Also noted: dose 480 mg/kg, route oral. The conditions noted are these: in vivo.
The subject of series [38] is Rattus norvegicus. Put plainly: Toxicity in Sprague-Dawley rat assessed as jumpy behavior at 480 mg/kg, po. Also noted: dose 480 mg/kg, route oral. The conditions noted are these: in vivo. It counts as organism-based.
Series [39] has as its system Rattus norvegicus. Put plainly: Hypoglycemic activity in glucose loaded Sprague-Dawley rat assessed as reduction of blood glucose level at 64 mg/kg, po relative to control. It counts as functional. Also noted: scale not given: the % may be the effect or the level left.
The test system of series [40] is Rattus norvegicus. The experiment in a line: Toxicity in Sprague-Dawley rat assessed as very rigid structure at 240 mg/kg, po. The format is organism-based. Also noted: dose 240 mg/kg, route oral. Particulars: in vivo.
Series [41] has as its system Rattus norvegicus. Put plainly: Hypoglycemic activity in glucose loaded Sprague-Dawley rat assessed as reduction of blood glucose level at 64 mg/kg, po in presence of microsomal enzyme inhibitor SKF 525-A. On the set-up: dose 64 mg/kg. The format is functional, organism-based.

Structures are written as SMILES. Active and inactive are the calls of the source. No cut-off for these calls is given here.

`COC(=O)[C@H]1C[C@H]2CC[C@H]([C@H]1c1cccs1)N2C(C)C.Cl`: the Activity was 87% in series [1], 13% in [2], “Toxic” in series [3] and 40% in series [4].
With `COC(=O)[C@@H]1C[C@@H]2CC[C@@H]([C@@H]1c1cccs1)N2C.Cl`, the Activity in series [5] is 62%; in [6], 26%; in [12], “Toxic”; in [13] it was “Toxic”; in series [14], below 20%. The outcome in [7], in series [8], in [9] and in series [11] was inactive. Further, the result in [10] was Active.
As a reminder, the ED50 is the midpoint of the dose-response relation. Consider `COC(=O)[C@H]1C[C@H]2CC[C@H]([C@H]1c1cccs1)N2C.Cl`, for which the ED50 in series [15] worked out at 59 mg/kg; in series [16], 60 mg/kg; in [18] it was 6.9 mg/kg. In addition, the Activity result in [17] was “Toxic”; in series [19], “Toxic”; in [20] it was “Toxic”; in [21], “Toxic”; in [14] (88 mg/kg), 75%. Moreover, in series [22], the “Ratio ED50” value is on record as above 10.
As to `Cl.O=C(O)[C@H]1C[C@H]2CC[C@@H](N2)[C@H]1c1cccs1`, in series [23], the Activity is recorded as below 20%. For the same compound, in series [24], the outcome was inactive.
Take `COC(=O)[C@H]1C[C@H]2CC[C@H]([C@H]1c1ccccc1)N2Cc1ccccc1`: the Activity in series [25] is 42%; in series [26] it was 60%; in [28] it was “Toxic”; in series [29], “Toxic”. In addition, in series [27], the ED50 was determined as 21 mg/kg.
For `CCOC(=O)[C@H]1C[C@H]2CC[C@@H](N2)[C@H]1c1cccs1.Cl`, in series [30], the median effective dose (ED50) turned out to be 2.8 mg/kg. The Activity entry in [31] is on record as “Toxic”; in [32], 85%; in series [33] it was 66%.
In the case of `CCCCCCCN1[C@@H]2CC[C@@H]1[C@@H](c1cccs1)[C@@H](C(=O)OC)C2`, the Activity in [25] is 40%; in series [34], 70%; in [35], 27%; in series [36], “Toxic”; in series [37], “Toxic”; in [38] it was “Toxic”.
Consider `COC(=O)[C@H]1C[C@H]2CC[C@H]([C@H]1c1cccs1)N2CCC#N.Cc1ccc(S(=O)(=O)O)cc1`, for which the values for the Activity in series [39], in [1] and in series [40] were 64%, 100% and “Toxic”, respectively. For the same compound, the ED50 in series [27] came out at 60 mg/kg. In addition, the outcome in series [41] was Active.
